Measurements as given in EP0908457B1, “3-(1,2-benzisothiazol- and isoxazol-5-Y1)-2,4(1H,3H)-pyrimidinedione or thione and 3-(1,2-benzisothiazol- and isoxazol-5-y1)-4(3H)-pyrimidinone or thione herbicidal agents” (BASF AKTIENGESELLSCHAFT, priority 1997, dated 1999).

What was measured:
[1] = system: Echinochloa oryzoides (Ard.) Fritsch.; test: Preemergence weed control under flooded paddy conditions, ECHORC (Watergrass (Calif.)); format: in vivo; conditions: flooded paddy, rated three to four weeks after treatment; note: meaning of each grade not given here
Cyperus iria = test: Preemergence weed control under flooded paddy conditions, CYPIR (Rice Flatsedge); format: in vivo; conditions: flooded paddy, rated three to four weeks after treatment; note: meaning of each grade not given here
[2] = system: Cyperus serotinus, Rottb.; test: Preemergence weed control under flooded paddy conditions, CYPSE (Flatsedge); format: in vivo; conditions: rated three to four weeks after treatment; note: meaning of each grade not given here
[3] = system: Monochoria vaginalis, Presl.; test: Preemergence weed control under flooded paddy conditions, MOOVA (Monochoria); format: in vivo; conditions: flooded paddy, rated three to four weeks after treatment; note: meaning of each grade not given here
Sagittaria pygmaea, L. = test: Preemergence weed control under flooded paddy conditions, SAGPY (Arrowhead (Pygmaea)); format: in vivo; conditions: flooded paddy, rated three to four weeks after treatment; note: meaning of each grade not given here
[4] = system: Oryza sativa, (L.) Tebonnet; test: Rice tolerance to post-transplant applications under flooded paddy conditions (Example 187), ORYSAT (Rice, Tebonnet); conditions: rated three to four weeks after treatment; for herbicidal effect rating ORYSAT: meaning of each grade not given here
[5] = Rate 0.0320 kg/ha, preemergence weeds
[6] = Rate 0.0620 kg/ha, preemergence weeds
[7] = Rate 0.1250 kg/ha, preemergence weeds
[8] = Rate 0.2500 kg/ha, preemergence weeds
[9] = Rate 0.0320 kg/ha, preemergence
[10] = Rate 0.0620 kg/ha, preemergence
[11] = Rate 0.1250 kg/ha, preemergence
[12] = Rate 0.2500 kg/ha, preemergence
[13] = 0.0313 kg/ha, preemergence weeds
[14] = 0.0625 kg/ha, preemergence weeds
[15] = 0.1250 kg/ha, preemergence weeds
[16] = 0.2500 kg/ha, preemergence weeds

In the case of `CC(C)NC(=O)c1nsc2ccc(-n3c(=O)cc(C(F)(F)F)n(C)c3=O)cc12` [Example 330, 1,2-Benzisothiazole-3-carboxamide, 5-[3,6-dihydro-3-methyl-2,6-dioxo-4-(trifluoromethyl)-1(2H)-pyrimidinyl]-N-isopropyl-], the “herbicidal effect rating, ECHORC” value [1, 5] was 7.0, the “herbicidal effect rating, ECHORC” value [1, 6] was 7.0 and the “herbicidal effect rating, ECHORC” value [1, 7] was 9.0. The “herbicidal effect rating, ECHORC” value [1, 8] was 9.0, the “herbicidal effect rating, CYPIR” value (Cyperus iria; [5]) was 0.0 and the “herbicidal effect rating, CYPIR” value (Cyperus iria; [6]) was 0.0. The “herbicidal effect rating, CYPIR” value (Cyperus iria; [7]) was 6.0, the “herbicidal effect rating, CYPIR” value (Cyperus iria; [8]) was 6.0 and the “herbicidal effect rating, CYPSE” value [2, 5] was 5.0. The “herbicidal effect rating, CYPSE” value [2, 6] was 5.0, the “herbicidal effect rating, CYPSE” value [2, 7] was 5.0 and the “herbicidal effect rating, CYPSE” value [2, 8] was 5.0. The “herbicidal effect rating, MOOVA” value [3, 5] was 9.0, the “herbicidal effect rating, MOOVA” value [3, 6] was 9.0 and the “herbicidal effect rating, MOOVA” value [3, 7] was 9.0. The “herbicidal effect rating, MOOVA” value [3, 8] was 9.0, the “herbicidal effect rating, SAGPY” value (Sagittaria pygmaea, L.; [5]) was 0.0 and the “herbicidal effect rating, SAGPY” value (Sagittaria pygmaea, L.; [6]) was 0.0. The “herbicidal effect rating, SAGPY” value (Sagittaria pygmaea, L.; [7]) was 0.0, the “herbicidal effect rating, SAGPY” value (Sagittaria pygmaea, L.; [8]) was 0.0 and the “herbicidal effect rating ORYSAT” value ([4]; Rate 0.0320 kg/ha) was 7.0. For the same molecule, the “herbicidal effect rating ORYSAT” value ([4]; Rate 0.0620 kg/ha) was 7.0, the “herbicidal effect rating ORYSAT” value ([4]; Rate 0.1250 kg/ha) was 7.0 and the “herbicidal effect rating ORYSAT” value ([4]; Rate 0.2500 kg/ha) was 7.0.
In the case of `CCS(=O)(=O)NC(=O)c1nsc2ccc(-n3c(=O)cc(C(F)(F)F)n(C)c3=O)cc12` [Example 383, 1,2-Benzisothiazole-3-carboxamide, 5-[3,6-dihydro-3-methyl-2,6-dioxo-4-(trifluoromethyl)-1(2H)-pyrimidinyl]-N-(ethylsulfonyl)-], the “herbicidal effect rating, ECHORC” value [1, 9] was 4.0, the “herbicidal effect rating, ECHORC” value [1, 10] was 6.5 and the “herbicidal effect rating, ECHORC” value [1, 11] was 7.5. The “herbicidal effect rating, ECHORC” value [1, 12] was 8.0, the “herbicidal effect rating, CYPIR” value (Cyperus iria; [9]) was 2.5 and the “herbicidal effect rating, CYPIR” value (Cyperus iria; [10]) was 7.0. For the same molecule, the “herbicidal effect rating, CYPIR” value (Cyperus iria; [11]) was 7.0, the “herbicidal effect rating, CYPIR” value (Cyperus iria; [12]) was 8.0 and the “herbicidal effect rating, CYPSE” value [2, 9] was 4.5. For the same molecule, the “herbicidal effect rating, CYPSE” value [2, 10] was 5.5, the “herbicidal effect rating, CYPSE” value [2, 11] was 7.5 and the “herbicidal effect rating, CYPSE” value [2, 12] was 9.0. The “herbicidal effect rating, MOOVA” value [3, 9] was 9.0, the “herbicidal effect rating, MOOVA” value [3, 10] was 9.0 and the “herbicidal effect rating, MOOVA” value [3, 11] was 9.0. The “herbicidal effect rating, MOOVA” value [3, 12] was 9.0, the “herbicidal effect rating, SAGPY” value (Sagittaria pygmaea, L.; [9]) was 3.0 and the “herbicidal effect rating, SAGPY” value (Sagittaria pygmaea, L.; [10]) was 7.5. For the same molecule, the “herbicidal effect rating, SAGPY” value (Sagittaria pygmaea, L.; [11]) was 9.0, the “herbicidal effect rating, SAGPY” value (Sagittaria pygmaea, L.; [12]) was 9.0 and the “herbicidal effect rating ORYSAT” value ([4]; Rate 0.0320 kg/ha) was 3.5. The “herbicidal effect rating ORYSAT” value ([4]; Rate 0.0620 kg/ha) was 4.5, the “herbicidal effect rating ORYSAT” value ([4]; Rate 0.1250 kg/ha) was 6.0 and the “herbicidal effect rating ORYSAT” value ([4]; Rate 0.2500 kg/ha) was 6.5.
With `Cn1c(C(F)(F)F)cc(=O)n(-c2ccc3snc(COCCCl)c3c2)c1=O` [Example 198, 3-{3-[(2-Chloroethoxy)methyl]-1,2-benzisothiazol-5-yl}-1-methyl-6-(trifluoromethyl)-2,4(1H,3H)-pyrimidinedione] the “herbicidal effect rating, ECHORC” value [1, 13] was 4.0, the “herbicidal effect rating, ECHORC” value [1, 14] was 6.0 and the “herbicidal effect rating, ECHORC” value [1, 15] was 9.0. The “herbicidal effect rating, ECHORC” value [1, 16] was 9.0, the “herbicidal effect rating, CYPIR” value (Cyperus iria; [13]) was 0.0 and the “herbicidal effect rating, CYPIR” value (Cyperus iria; [14]) was 2.0. The “herbicidal effect rating, CYPIR” value (Cyperus iria; [15]) was 4.0, the “herbicidal effect rating, CYPIR” value (Cyperus iria; [16]) was 7.0 and the “herbicidal effect rating, CYPSE” value [2, 13] was 0.0. The “herbicidal effect rating, CYPSE” value [2, 14] was 2.0, the “herbicidal effect rating, CYPSE” value [2, 15] was 4.0 and the “herbicidal effect rating, CYPSE” value [2, 16] was 8.0. The “herbicidal effect rating, MOOVA” value [3, 13] was 9.0, the “herbicidal effect rating, MOOVA” value [3, 14] was 9.0 and the “herbicidal effect rating, MOOVA” value [3, 15] was 9.0. The “herbicidal effect rating, MOOVA” value [3, 16] was 9.0, the “herbicidal effect rating, SAGPY” value (Sagittaria pygmaea, L.; [13]) was 0.0 and the “herbicidal effect rating, SAGPY” value (Sagittaria pygmaea, L.; [14]) was 0.0. The “herbicidal effect rating, SAGPY” value (Sagittaria pygmaea, L.; [15]) was 2.0, the “herbicidal effect rating, SAGPY” value (Sagittaria pygmaea, L.; [16]) was 4.0 and the “herbicidal effect rating, ORYSAT (rice tolerance)” value (“herbicidal effect rating, ORYSAT” for short) ([4]; 0.0313 kg/ha) was 4.0. For the same molecule, the “herbicidal effect rating, ORYSAT” value ([4]; 0.0625 kg/ha) was 7.0, the “herbicidal effect rating, ORYSAT” value ([4]; 0.1250 kg/ha) was 8.0 and the “herbicidal effect rating, ORYSAT” value ([4]; 0.2500 kg/ha) was 9.0.
`Cn1c(C(F)(F)F)cc(=O)n(-c2ccc3snc(C(=O)Oc4ccccc4)c3c2)c1=O` [Example 319, 1,2-Benzisothiazole-3-carboxylic acid, 5-[3,6-dihydro-3-methyl-2,6-dioxo-4-(trifluoromethyl)-1(2H)-pyrimidinyl]-, phenyl ester] was tested, and the “herbicidal effect rating, ECHORC” value [1, 5] was 3.0, the “herbicidal effect rating, ECHORC” value [1, 6] was 7.0 and the “herbicidal effect rating, ECHORC” value [1, 7] was 9.0. For the same molecule, the “herbicidal effect rating, ECHORC” value [1, 8] was 9.0, the “herbicidal effect rating, CYPIR” value (Cyperus iria; [5]) was 3.0 and the “herbicidal effect rating, CYPIR” value (Cyperus iria; [6]) was 9.0. The “herbicidal effect rating, CYPIR” value (Cyperus iria; [7]) was 9.0, the “herbicidal effect rating, CYPIR” value (Cyperus iria; [8]) was 9.0 and the “herbicidal effect rating, CYPSE” value [2, 5] was 4.0. The “herbicidal effect rating, CYPSE” value [2, 6] was 6.0, the “herbicidal effect rating, CYPSE” value [2, 7] was 6.0 and the “herbicidal effect rating, CYPSE” value [2, 8] was 6.0. The “herbicidal effect rating, MOOVA” value [3, 5] was 9.0, the “herbicidal effect rating, MOOVA” value [3, 6] was 9.0 and the “herbicidal effect rating, MOOVA” value [3, 7] was 9.0. The “herbicidal effect rating, MOOVA” value [3, 8] was 9.0, the “herbicidal effect rating, SAGPY” value (Sagittaria pygmaea, L.; [5]) was 6.0 and the “herbicidal effect rating, SAGPY” value (Sagittaria pygmaea, L.; [6]) was 6.0. For the same molecule, the “herbicidal effect rating, SAGPY” value (Sagittaria pygmaea, L.; [7]) was 9.0, the “herbicidal effect rating, SAGPY” value (Sagittaria pygmaea, L.; [8]) was 9.0 and the “herbicidal effect rating ORYSAT” value ([4]; Rate 0.0320 kg/ha) was 5.0. The “herbicidal effect rating ORYSAT” value ([4]; Rate 0.0620 kg/ha) was 6.0, the “herbicidal effect rating ORYSAT” value ([4]; Rate 0.1250 kg/ha) was 6.0 and the “herbicidal effect rating ORYSAT” value ([4]; Rate 0.2500 kg/ha) was 7.0.
In the case of `C=CC(C)OCc1nsc2ccc(-n3c(=O)cc(C(F)(F)F)n(C)c3=O)cc12` (stereo not drawn) [Example 206, 1-Methyl-3-{3-[(1-methylallyloxy)methyl]-1,2-benzisothiazol-5-yl]-6-(trifluoromethyl)-2,4(1H,3H)-pyrimidinedione], the “herbicidal effect rating, ECHORC” value [1, 13] was 0.0, the “herbicidal effect rating, ECHORC” value [1, 14] was 2.0 and the “herbicidal effect rating, ECHORC” value [1, 15] was 2.0. The “herbicidal effect rating, ECHORC” value [1, 16] was 9.0, the “herbicidal effect rating, CYPIR” value (Cyperus iria; [13]) was 9.0 and the “herbicidal effect rating, CYPIR” value (Cyperus iria; [14]) was 9.0. The “herbicidal effect rating, CYPIR” value (Cyperus iria; [15]) was 9.0, the “herbicidal effect rating, CYPIR” value (Cyperus iria; [16]) was 9.0 and the “herbicidal effect rating, CYPSE” value [2, 13] was 0.0. The “herbicidal effect rating, CYPSE” value [2, 14] was 2.0, the “herbicidal effect rating, CYPSE” value [2, 15] was 7.0 and the “herbicidal effect rating, CYPSE” value [2, 16] was 7.0. The “herbicidal effect rating, MOOVA” value [3, 13] was 0.0, the “herbicidal effect rating, MOOVA” value [3, 14] was 0.0 and the “herbicidal effect rating, MOOVA” value [3, 15] was 1.0. For the same molecule, the “herbicidal effect rating, MOOVA” value [3, 16] was 4.0, the “herbicidal effect rating, SAGPY” value (Sagittaria pygmaea, L.; [13]) was 0.0 and the “herbicidal effect rating, SAGPY” value (Sagittaria pygmaea, L.; [14]) was 0.0. For the same molecule, the “herbicidal effect rating, SAGPY” value (Sagittaria pygmaea, L.; [15]) was 1.0, the “herbicidal effect rating, SAGPY” value (Sagittaria pygmaea, L.; [16]) was 4.0 and the “herbicidal effect rating, ORYSAT” value ([4]; 0.0313 kg/ha) was 5.0. The “herbicidal effect rating, ORYSAT” value ([4]; 0.0625 kg/ha) was 6.0, the “herbicidal effect rating, ORYSAT” value ([4]; 0.1250 kg/ha) was 7.0 and the “herbicidal effect rating, ORYSAT” value ([4]; 0.2500 kg/ha) was 9.0.
